According to patent US20260274829A1, “NEW E3 UBIQUITIN LIGASE LIGAND, PROTEIN DEGRADATION AGENT AND USE THEREOF” (GLUETACS THERAPEUTICS (SHANGHAI) CO., LTD., priority 2023, published 2026):

How the values were obtained:
Type in all cases: cell-based
IKZF3 = molecular target: T1, IKZF3 (Homo sapiens, UniProt Q96SW2+Q9UKT9); test: Western blot degradation of IKZF3 in hPBMC
T1 construct: endogenous in cells; host or cells: hPBMC
Method: (§1) Conventional Western blot assay was performed to evaluate the effects of the compounds of the present disclosure on the expression of target proteins in cells.
(§2) • (1) Cell Seeding and Protein Harvesting: The selected cells were processed according to the cell seeding procedure and protein harvesting procedure in Table III-2.
(§3) • (2) To the collected supernatant, 5×SDS sample loading buffer was added, followed by denaturation at 95° C. for 5 minutes. The denatured samples were then separated by SDS-PAGE electrophoresis on a polyacrylamide gel. Proteins were transferred to a nitrocellulose membrane ([…] NC membrane), blocked with blocking buffer at room temperature for 1 hour, and subjected to antibody incubation and development procedures according to the antibody manufacturer's instructions (Cell Signaling Technology).
(§4) Half-Maximal Degradation Concentration value (the drug concentration required for degrading proteins by 50%, abbreviated as DC50) reads method: comparing the grayscale values of Western blot bands from drug-treated samples with those from blank DMSO-treated controls, and identifying the drug concentration range at which the grayscale value is half that of the DMSO-treated control bands.
(§5) DC50 values can be calculated using ImageJ software to measure grayscale values of Western blot bands from drug-treated samples. The concentration-response curve is fitted to estimate the drug concentration corresponding to half the grayscale value.
(§6) Target protein remaining (0%) refers to the percentage of target protein remaining in hPBMC cells after treatment with protein degrader compounds.
(§7) Calculation method for target protein remaining (0%): Use ImageJ software to measure grayscale values of Western blot bands from drug (protein degrader)-treated samples. The grayscale value of drug-treated bands is divided by that of internal control protein bands, and the resulting quotient is normalized to obtain the relative percentage of remaining target protein after protein degrader treatment.

IKZF1 = molecular target: T2, IKZF1 (Homo sapiens, UniProt Q13422+Q96SW2); test: Western blot degradation of IKZF1 in hPBMC
T2 construct: endogenous in cells; host or cells: hPBMC
T2 sequence (Q13422 whole entry): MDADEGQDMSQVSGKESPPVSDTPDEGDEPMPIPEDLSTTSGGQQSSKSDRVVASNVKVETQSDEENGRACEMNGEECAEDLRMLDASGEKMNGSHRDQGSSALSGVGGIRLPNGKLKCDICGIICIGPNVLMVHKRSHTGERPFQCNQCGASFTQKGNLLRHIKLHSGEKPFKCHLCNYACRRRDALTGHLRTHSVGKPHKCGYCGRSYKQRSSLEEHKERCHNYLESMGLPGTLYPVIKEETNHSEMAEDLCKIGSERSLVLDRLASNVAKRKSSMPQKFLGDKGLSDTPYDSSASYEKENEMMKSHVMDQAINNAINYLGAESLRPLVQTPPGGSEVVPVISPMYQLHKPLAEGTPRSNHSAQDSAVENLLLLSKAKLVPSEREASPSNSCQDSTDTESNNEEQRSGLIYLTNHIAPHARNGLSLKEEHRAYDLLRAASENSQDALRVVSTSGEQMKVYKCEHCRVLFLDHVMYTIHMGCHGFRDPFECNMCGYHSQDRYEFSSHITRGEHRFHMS
T2 sequence (Q96SW2 whole entry): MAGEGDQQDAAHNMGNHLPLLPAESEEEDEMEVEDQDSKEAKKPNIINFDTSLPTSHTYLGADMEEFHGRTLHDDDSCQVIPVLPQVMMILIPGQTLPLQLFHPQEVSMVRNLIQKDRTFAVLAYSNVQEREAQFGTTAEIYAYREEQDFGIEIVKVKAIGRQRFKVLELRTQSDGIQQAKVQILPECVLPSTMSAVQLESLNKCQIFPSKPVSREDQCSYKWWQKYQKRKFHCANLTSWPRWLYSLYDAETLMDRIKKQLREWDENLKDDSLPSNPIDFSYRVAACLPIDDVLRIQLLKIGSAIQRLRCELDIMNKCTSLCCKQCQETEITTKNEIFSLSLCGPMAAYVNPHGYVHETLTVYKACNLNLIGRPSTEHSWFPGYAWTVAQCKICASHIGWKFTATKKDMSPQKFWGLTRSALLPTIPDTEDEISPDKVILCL
T2 sequence (Q16531 whole entry partner): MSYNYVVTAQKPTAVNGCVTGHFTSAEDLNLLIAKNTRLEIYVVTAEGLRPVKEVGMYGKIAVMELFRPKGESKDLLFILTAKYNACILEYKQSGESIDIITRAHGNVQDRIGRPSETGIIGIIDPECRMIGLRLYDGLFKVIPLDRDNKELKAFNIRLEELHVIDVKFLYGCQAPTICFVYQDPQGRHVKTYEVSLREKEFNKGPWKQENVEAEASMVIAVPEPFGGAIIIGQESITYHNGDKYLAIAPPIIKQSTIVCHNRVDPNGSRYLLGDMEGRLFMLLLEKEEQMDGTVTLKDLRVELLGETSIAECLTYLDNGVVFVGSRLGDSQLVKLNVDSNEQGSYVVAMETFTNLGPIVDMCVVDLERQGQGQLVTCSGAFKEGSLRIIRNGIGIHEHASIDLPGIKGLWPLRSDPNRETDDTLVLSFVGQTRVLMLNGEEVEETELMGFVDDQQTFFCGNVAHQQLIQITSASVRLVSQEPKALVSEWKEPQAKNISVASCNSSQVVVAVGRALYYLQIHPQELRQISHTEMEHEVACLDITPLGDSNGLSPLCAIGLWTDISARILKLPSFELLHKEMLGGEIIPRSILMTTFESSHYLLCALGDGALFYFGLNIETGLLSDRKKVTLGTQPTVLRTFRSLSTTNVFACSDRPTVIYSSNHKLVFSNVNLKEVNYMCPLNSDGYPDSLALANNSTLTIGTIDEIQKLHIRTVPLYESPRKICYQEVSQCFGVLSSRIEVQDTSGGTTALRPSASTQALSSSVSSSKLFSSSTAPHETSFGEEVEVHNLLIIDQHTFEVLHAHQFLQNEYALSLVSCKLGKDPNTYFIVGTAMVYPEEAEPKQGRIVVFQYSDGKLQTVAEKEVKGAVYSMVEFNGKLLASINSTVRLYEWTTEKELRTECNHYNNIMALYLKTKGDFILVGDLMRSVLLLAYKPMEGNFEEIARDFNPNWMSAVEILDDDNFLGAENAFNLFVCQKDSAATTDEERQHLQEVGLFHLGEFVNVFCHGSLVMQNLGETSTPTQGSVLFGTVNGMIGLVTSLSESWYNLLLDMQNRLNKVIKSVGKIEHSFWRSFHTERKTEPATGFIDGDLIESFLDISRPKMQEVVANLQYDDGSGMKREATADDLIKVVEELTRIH
Method: as §1, §2, §3, §4, §5, §6, §7

GSPT1 = molecular target: T3, GSPT1 (Homo sapiens, UniProt P15170+Q96SW2); test: Western blot degradation of GSPT1 in hPBMC
T3 construct: endogenous in cells; host or cells: hPBMC
T3 sequence (P15170 whole entry): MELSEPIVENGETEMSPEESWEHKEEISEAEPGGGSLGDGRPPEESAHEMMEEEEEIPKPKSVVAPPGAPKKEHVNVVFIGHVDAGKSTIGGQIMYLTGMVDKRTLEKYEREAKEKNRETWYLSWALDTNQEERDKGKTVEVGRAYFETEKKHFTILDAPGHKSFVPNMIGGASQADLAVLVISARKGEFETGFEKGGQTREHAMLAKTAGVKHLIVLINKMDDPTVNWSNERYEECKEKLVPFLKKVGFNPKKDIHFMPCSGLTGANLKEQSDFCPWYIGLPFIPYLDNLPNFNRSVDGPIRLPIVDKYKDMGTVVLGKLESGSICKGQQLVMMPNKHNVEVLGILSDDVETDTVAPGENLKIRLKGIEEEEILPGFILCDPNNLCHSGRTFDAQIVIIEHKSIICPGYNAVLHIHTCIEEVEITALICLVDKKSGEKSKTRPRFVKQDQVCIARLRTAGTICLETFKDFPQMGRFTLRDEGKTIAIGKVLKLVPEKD
T3 sequence (Q96SW2 whole entry): as the sequence (Q96SW2 whole entry) above
T3 sequence (Q16531 whole entry partner): as the sequence (Q16531 whole entry partner) above
Method: as §1, §2, §3, §4, §5, §6, §7

WEE1 = molecular target: T4, WEE1 (Homo sapiens, UniProt P30291+Q96SW2); test: Western blot degradation of WEE1 in hPBMC
T4 construct: endogenous in cells; host or cells: hPBMC
T4 sequence (P30291 whole entry): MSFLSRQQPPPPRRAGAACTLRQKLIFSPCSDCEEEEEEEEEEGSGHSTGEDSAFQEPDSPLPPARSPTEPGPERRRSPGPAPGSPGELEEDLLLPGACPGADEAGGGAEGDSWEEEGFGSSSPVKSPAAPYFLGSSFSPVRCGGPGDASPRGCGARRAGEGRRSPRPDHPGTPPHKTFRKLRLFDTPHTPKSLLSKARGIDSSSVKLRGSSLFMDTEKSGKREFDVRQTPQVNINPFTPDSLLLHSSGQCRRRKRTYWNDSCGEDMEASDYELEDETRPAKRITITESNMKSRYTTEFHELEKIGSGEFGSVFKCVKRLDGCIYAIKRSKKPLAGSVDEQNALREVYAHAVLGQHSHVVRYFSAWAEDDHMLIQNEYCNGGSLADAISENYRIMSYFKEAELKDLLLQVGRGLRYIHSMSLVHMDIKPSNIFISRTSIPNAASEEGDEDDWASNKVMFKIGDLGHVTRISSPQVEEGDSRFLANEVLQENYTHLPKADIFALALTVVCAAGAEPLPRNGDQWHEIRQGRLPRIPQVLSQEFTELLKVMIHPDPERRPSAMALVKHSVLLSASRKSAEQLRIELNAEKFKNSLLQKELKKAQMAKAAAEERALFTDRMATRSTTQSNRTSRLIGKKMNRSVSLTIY
T4 sequence (Q96SW2 whole entry): as the sequence (Q96SW2 whole entry) above
T4 sequence (Q16531 whole entry partner): as the sequence (Q16531 whole entry partner) above
Method: as §1, §2, §3, §4, §5, §6, §7

CK1a = molecular target: T5, CK1a (Homo sapiens, UniProt P48729+Q96SW2); test: Western blot degradation of CK1a in hPBMC
T5 construct: endogenous in cells; host or cells: hPBMC
Method: as §1, §2, §3, §4, §5, §6, §7

IKZF2 = molecular target: T6, IKZF2 (Homo sapiens, UniProt Q96SW2+Q9UKS7); test: Western blot degradation of IKZF2 in hPBMC
T6 construct: endogenous in cells; host or cells: hPBMC
T6 sequence (Q9UKS7 whole entry): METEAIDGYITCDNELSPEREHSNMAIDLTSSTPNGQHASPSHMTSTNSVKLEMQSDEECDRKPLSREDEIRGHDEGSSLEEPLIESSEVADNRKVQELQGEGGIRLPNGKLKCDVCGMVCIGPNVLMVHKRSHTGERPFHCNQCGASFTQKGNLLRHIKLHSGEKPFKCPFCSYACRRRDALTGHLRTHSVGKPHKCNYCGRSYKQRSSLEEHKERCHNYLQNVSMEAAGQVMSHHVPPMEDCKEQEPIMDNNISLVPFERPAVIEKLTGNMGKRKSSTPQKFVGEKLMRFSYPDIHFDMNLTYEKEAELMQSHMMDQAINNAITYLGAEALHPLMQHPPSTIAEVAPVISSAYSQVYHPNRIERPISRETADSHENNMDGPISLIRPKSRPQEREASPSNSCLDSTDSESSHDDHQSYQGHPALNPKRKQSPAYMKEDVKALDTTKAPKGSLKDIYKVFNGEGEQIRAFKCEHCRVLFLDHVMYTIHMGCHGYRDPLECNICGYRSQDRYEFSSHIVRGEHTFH
T6 sequence (Q96SW2 whole entry): as the sequence (Q96SW2 whole entry) above
T6 sequence (Q16531 whole entry partner): as the sequence (Q16531 whole entry partner) above
Method: as §1, §2, §3, §4, §5, §6, §7

T1 sequence (Q9UKT9 whole entry): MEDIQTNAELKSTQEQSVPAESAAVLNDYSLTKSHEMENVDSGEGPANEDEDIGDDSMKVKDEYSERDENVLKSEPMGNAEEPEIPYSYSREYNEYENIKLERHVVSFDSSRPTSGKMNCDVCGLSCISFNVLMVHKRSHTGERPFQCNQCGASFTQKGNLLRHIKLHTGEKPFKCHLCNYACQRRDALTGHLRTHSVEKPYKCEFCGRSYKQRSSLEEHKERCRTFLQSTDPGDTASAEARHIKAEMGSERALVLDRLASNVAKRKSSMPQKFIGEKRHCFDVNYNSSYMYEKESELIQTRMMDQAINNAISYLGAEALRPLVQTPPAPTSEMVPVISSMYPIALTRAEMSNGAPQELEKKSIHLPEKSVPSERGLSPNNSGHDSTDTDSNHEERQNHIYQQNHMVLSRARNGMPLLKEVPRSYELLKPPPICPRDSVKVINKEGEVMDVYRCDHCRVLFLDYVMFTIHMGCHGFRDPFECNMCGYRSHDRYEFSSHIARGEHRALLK
T1 sequence (Q96SW2 whole entry): as the sequence (Q96SW2 whole entry) above
T1 sequence (Q16531 whole entry partner): as the sequence (Q16531 whole entry partner) above

Compound	Degradation of substrate protein IKZF3 (substrate protein remaining %) (IKZF3)	Degradation of substrate protein IKZF1 (substrate protein remaining %) (IKZF1)	Degradation of substrate protein GSPT1 (substrate protein remaining %) (GSPT1)	Degradation of substrate protein WEE1 (substrate protein remaining %) (WEE1)	Degradation of substrate protein CK1a (substrate protein remaining %) (CK1a)	Degradation of substrate protein IKZF2 (substrate protein remaining %) (IKZF2)
O=C1CCN(c2cncc(CCl)c2)C(=O)N1 [GT-07047, 1-(5-(chloromethyl)pyridin-3-yl)dihydropyrimidine-2,4(1H,3H)-dione]	A (A is defined as 0% ≤ substrate protein remaining % ≤ 80%)	A (A is defined as 0% ≤ substrate protein remaining % ≤ 80%)	B (B is defined as substrate protein remaining % > 80%)	B (B is defined as substrate protein remaining % > 80%)	A (A is defined as 0% ≤ substrate protein remaining % ≤ 80%)	A (A is defined as 0% ≤ substrate protein remaining % ≤ 80%)
O=C1CCN(c2cnc(CCl)cn2)C(=O)N1 [GT-07635, 1-(5-(chloromethyl)pyrazin-2-yl)dihydropyrimidine-2,4(1H,3H)-dione]	A (A is defined as 0% ≤ substrate protein remaining % ≤ 80%)	A (A is defined as 0% ≤ substrate protein remaining % ≤ 80%)	B (B is defined as substrate protein remaining % > 80%)	A (A is defined as 0% ≤ substrate protein remaining % ≤ 80%)	A (A is defined as 0% ≤ substrate protein remaining % ≤ 80%)	A (A is defined as 0% ≤ substrate protein remaining % ≤ 80%)
O=C1CCC(c2cnc(CO)c(F)c2)C(=O)N1 (stereo not drawn) [GT-07049, 3-(5-fluoro-6-(hydroxymethyl)pyridin-3-yl)piperidine-2,6-dione]	A (A is defined as 0% ≤ substrate protein remaining % ≤ 80%)	B (B is defined as substrate protein remaining % > 80%)	A (A is defined as 0% ≤ substrate protein remaining % ≤ 80%)	B (B is defined as substrate protein remaining % > 80%)	A (A is defined as 0% ≤ substrate protein remaining % ≤ 80%)	A (A is defined as 0% ≤ substrate protein remaining % ≤ 80%)
CC(C)(C)[Si](C)(C)OCc1cncc(NC2CCC(=O)NC2=O)c1 (stereo not drawn) [GT-07449, 3-((5-(((tert-butyldimethylsilyl)oxy)methyl)pyridin-3-yl)amino)piperidine-2,6-dione]	B (B is defined as substrate protein remaining % > 80%)	B (B is defined as substrate protein remaining % > 80%)	B (B is defined as substrate protein remaining % > 80%)	B (B is defined as substrate protein remaining % > 80%)	B (B is defined as substrate protein remaining % > 80%)	A (A is defined as 0% ≤ substrate protein remaining % ≤ 80%)
O=Cc1cnc(NC2CCC(=O)NC2=O)nc1 (stereo not drawn) [GT-07367, 2-((2,6-dioxopiperidin-3-yl)amino)pyrimidine-5-carbaldehyde]	B (B is defined as substrate protein remaining % > 80%)	B (B is defined as substrate protein remaining % > 80%)	A (A is defined as 0% ≤ substrate protein remaining % ≤ 80%)	B (B is defined as substrate protein remaining % > 80%)	A (A is defined as 0% ≤ substrate protein remaining % ≤ 80%)	B (B is defined as substrate protein remaining % > 80%)
O=C1CCC(Nc2ccc(CO)cn2)C(=O)N1 (stereo not drawn) [GT-07551, 3-((5-(hydroxymethyl)pyridin-2-yl)amino)piperidine-2,6-dione]	B (B is defined as substrate protein remaining % > 80%)	B (B is defined as substrate protein remaining % > 80%)	B (B is defined as substrate protein remaining % > 80%)	A (A is defined as 0% ≤ substrate protein remaining % ≤ 80%)	B (B is defined as substrate protein remaining % > 80%)	A (A is defined as 0% ≤ substrate protein remaining % ≤ 80%)
O=C1CCC(Nc2ccc(CO)nc2)C(=O)N1 (stereo not drawn) [GT-07446, 3-((6-(hydroxymethyl)pyridin-3-yl)amino)piperidine-2,6-dione]	A (A is defined as 0% ≤ substrate protein remaining % ≤ 80%)	A (A is defined as 0% ≤ substrate protein remaining % ≤ 80%)	A (A is defined as 0% ≤ substrate protein remaining % ≤ 80%)	A (A is defined as 0% ≤ substrate protein remaining % ≤ 80%)	A (A is defined as 0% ≤ substrate protein remaining % ≤ 80%)	A (A is defined as 0% ≤ substrate protein remaining % ≤ 80%)
O=C1CCC(c2ccc(CO)nc2F)C(=O)N1 (stereo not drawn) [GT-07558, 3-(2-fluoro-6-(hydroxymethyl)pyridin-3-yl)piperidine-2,6-dione]	B (B is defined as substrate protein remaining % > 80%)	A (A is defined as 0% ≤ substrate protein remaining % ≤ 80%)	B (B is defined as substrate protein remaining % > 80%)	A (A is defined as 0% ≤ substrate protein remaining % ≤ 80%)	A (A is defined as 0% ≤ substrate protein remaining % ≤ 80%)	B (B is defined as substrate protein remaining % > 80%)
O=Cc1cncnc1NC1CCC(=O)NC1=O (stereo not drawn) [GT-07805, 4-((2,6-dioxopiperidin-3-yl)amino)pyrimidine-5-carbaldehyde]	A (A is defined as 0% ≤ substrate protein remaining % ≤ 80%)	A (A is defined as 0% ≤ substrate protein remaining % ≤ 80%)	B (B is defined as substrate protein remaining % > 80%)	B (B is defined as substrate protein remaining % > 80%)	B (B is defined as substrate protein remaining % > 80%)	A (A is defined as 0% ≤ substrate protein remaining % ≤ 80%)
O=C1CCC(Nc2cc(CO)ccn2)C(=O)N1 (stereo not drawn) [GT-07366, 3-((4-(hydroxymethyl)pyridin-2-yl)amino)piperidine-2,6-dione]	B (B is defined as substrate protein remaining % > 80%)	B (B is defined as substrate protein remaining % > 80%)	A (A is defined as 0% ≤ substrate protein remaining % ≤ 80%)	B (B is defined as substrate protein remaining % > 80%)	A (A is defined as 0% ≤ substrate protein remaining % ≤ 80%)	B (B is defined as substrate protein remaining % > 80%)
CC(C)(C)[Si](C)(C)OCc1cc(NC2CCC(=O)NC2=O)ncc1F (stereo not drawn) [GT-07724, 3-((4-(((tert-butyldimethylsilyl)oxy)methyl)-5-fluoropyridin-2-yl)amino)piperidine-2,6-dione]	A (A is defined as 0% ≤ substrate protein remaining % ≤ 80%)	A (A is defined as 0% ≤ substrate protein remaining % ≤ 80%)	A (A is defined as 0% ≤ substrate protein remaining % ≤ 80%)	A (A is defined as 0% ≤ substrate protein remaining % ≤ 80%)	B (B is defined as substrate protein remaining % > 80%)	A (A is defined as 0% ≤ substrate protein remaining % ≤ 80%)
